Active and inactive are the calls of the source. No cut-off for these calls is given here. Bounds are passed on as bounds.

This passage reports Activity results from ChEMBL document CHEMBL1240402 (2010).

What all share (format): functional
For assay [1], the system named is Clostridium perfringens. Put plainly: Antimicrobial activity against Clostridium perfringens LFM1 assessed as resistance breakpoint by DIN-standardized microdilution method. A general note: Broth dilution looks for growth in wells or tubes with falling amounts of substance.
The subject of assay [2] is Clostridium perfringens. Put plainly: Antimicrobial activity against Clostridium perfringens LFM1 assessed as resistance breakpoint by DANMAP method.
For assay [3], the system named is Clostridium perfringens. Put plainly: Antimicrobial activity against Clostridium perfringens LFM1 assessed as resistant breakpoint by EUCAST method.

As for `CCC[C@@H]1C[C@@H](C(=O)N[C@@H]([C@H]2O[C@H](SC)[C@H](O)[C@@H](O)[C@H]2O)[C@H](C)Cl)N(C)C1`, the result in the assay on Clostridium perfringens [1] was inactive.
With `CC[C@H]1OC(=O)[C@H](C)[C@@H](O[C@H]2C[C@@](C)(OC)[C@@H](O)[C@H](C)O2)[C@H](C)[C@@H](O[C@@H]2O[C@H](C)C[C@H](N(C)C)[C@H]2O)[C@](C)(O)C[C@@H](C)C(=O)[C@H](C)[C@@H](O)[C@]1(C)O`, the result in the assay with Clostridium perfringens [1] was inactive.
On to `O=C(N[C@H](CO)[C@H](O)c1ccc([N+](=O)[O-])cc1)C(Cl)Cl`, for which the result in the assay with Clostridium perfringens [2] was inactive.
Still for that read-out and setting: under `CS(=O)(=O)c1ccc([C@@H](O)[C@@H](CF)NC(=O)C(Cl)Cl)cc1` [FLORFENICOL] stands “inactive”.
As for `CC(=O)NC[C@H]1CN(c2ccc(N3CCOCC3)c(F)c2)C(=O)O1` [LINEZOLID], in the assay with Clostridium perfringens [3], the outcome was inactive. Also, the Activity with Clostridium perfringens [3] (record 2), in the assay on Clostridium perfringens [2] and with Clostridium perfringens [1] was more than 4 mg/L throughout.
